Experimental data taken from ChEMBL document CHEMBL4420075, “Seriniquinones, melanoma-specific anticancer agents” (2016).

Legend:
[1] = tested on: HCT-116; assay: Cytotoxicity in human HCT116 cells by MTT assay; assay type: functional, cell-based
[2] = tested on: OVCAR-4; assay: Growth inhibition of human OVCAR4 cells assessed as cell growth incubated for 48 hrs by sulforhodamine B assay; assay type: functional; parameters: concentration or dose not given beside the values
[3] = tested on: MDA-MB-231; assay: Growth inhibition of human MDA-MB-231 cells assessed as cell growth incubated for 48 hrs by sulforhodamine B assay; assay type: functional; parameters: concentration or dose not given beside the values
[4] = tested on: NCI-H226; assay: Growth inhibition of human NCI-H226 cells assessed as cell growth incubated for 48 hrs by sulforhodamine B assay; assay type: functional; parameters: concentration or dose not given beside the values
[5] = tested on: OVCAR-8; assay: Growth inhibition of human OVCAR8 cells assessed as cell growth incubated for 48 hrs by sulforhodamine B assay; assay type: functional; parameters: concentration or dose not given beside the values
[6] = tested on: SW-620; assay: Growth inhibition of human SW620 cells assessed as cell growth incubated for 48 hrs by sulforhodamine B assay; assay type: functional; parameters: concentration or dose not given beside the values
[7] = tested on: MDA-MB-468; assay: Growth inhibition of human MDA-MB-468 cells assessed as cell growth incubated for 48 hrs by sulforhodamine B assay; assay type: functional; parameters: concentration or dose not given beside the values
[8] = tested on: HCT-15; assay: Growth inhibition of human HCT15 cells assessed as cell growth incubated for 48 hrs by sulforhodamine B assay; assay type: functional; parameters: scale not given: the % may be the effect or the level left
[9] = tested on: SNB-19; assay: Growth inhibition of human SNB19 cells assessed as cell growth incubated for 48 hrs by sulforhodamine B assay; assay type: functional; parameters: concentration or dose not given beside the values
[10] = tested on: SF-268; assay: Growth inhibition of human SF268 cells assessed as cell growth incubated for 48 hrs by sulforhodamine B assay; assay type: functional; parameters: concentration or dose not given beside the values
[11] = tested on: ACHN; assay: Growth inhibition of human ACHN cells assessed as cell growth incubated for 48 hrs by sulforhodamine B assay; assay type: functional; parameters: scale not given: the % may be the effect or the level left
[12] = tested on: HOP-92; assay: Growth inhibition of human HOP92 cells assessed as cell growth incubated for 48 hrs by sulforhodamine B assay; assay type: functional; parameters: concentration or dose not given beside the values
[13] = tested on: SN12C; assay: Growth inhibition of human SN12C cells assessed as cell growth incubated for 48 hrs by sulforhodamine B assay; assay type: functional; parameters: concentration or dose not given beside the values
[14] = tested on: SK-MEL-28; assay: Growth inhibition of human SK-MEL-28 cells assessed as cell growth incubated for 48 hrs by sulforhodamine B assay; assay type: functional; parameters: concentration or dose not given beside the values
[15] = tested on: OVCAR-5; assay: Growth inhibition of human OVCAR5 cells assessed as cell growth incubated for 48 hrs by sulforhodamine B assay; assay type: functional; parameters: scale not given: the % may be the effect or the level left
[16] = tested on: BT-549; assay: Growth inhibition of human BT549 cells assessed as cell growth incubated for 48 hrs by sulforhodamine B assay; assay type: functional; parameters: concentration or dose not given beside the values
[17] = tested on: T47D; assay: Growth inhibition of human T47D cells assessed as cell growth incubated for 48 hrs by sulforhodamine B assay; assay type: functional; parameters: concentration or dose not given beside the values
[18] = tested on: SK-OV-3; assay: Growth inhibition of human SKOV3 cells assessed as cell growth incubated for 48 hrs by sulforhodamine B assay; assay type: functional; parameters: concentration or dose not given beside the values
[19] = tested on: UACC-62; assay: Growth inhibition of human UACC62 cells assessed as cell growth incubated for 48 hrs by sulforhodamine B assay; assay type: functional; parameters: concentration or dose not given beside the values
[20] = tested on: K562; assay: Growth inhibition of human K562 cells assessed as cell growth incubated for 48 hrs by sulforhodamine B assay; assay type: functional; parameters: concentration or dose not given beside the values
[21] = tested on: 786-0; assay: Growth inhibition of human 786-0 cells assessed as cell growth incubated for 48 hrs by sulforhodamine B assay; assay type: functional; parameters: concentration or dose not given beside the values
[22] = tested on: NCI-H23; assay: Growth inhibition of human NCI-H23 cells assessed as cell growth incubated for 48 hrs by sulforhodamine B assay; assay type: functional; parameters: concentration or dose not given beside the values
[23] = tested on: HOP-62; assay: Growth inhibition of human HOP62 cells assessed as cell growth incubated for 48 hrs by sulforhodamine B assay; assay type: functional; parameters: concentration or dose not given beside the values
[24] = tested on: LOX IMVI; assay: Growth inhibition of human LOXIMVI cells assessed as cell growth incubated for 48 hrs by sulforhodamine B assay; assay type: functional; parameters: concentration or dose not given beside the values
[25] = tested on: OVCAR-3; assay: Growth inhibition of human OVCAR3 cells assessed as cell growth incubated for 48 hrs by sulforhodamine B assay; assay type: functional; parameters: concentration or dose not given beside the values
[26] = tested on: HT-29; assay: Growth inhibition of human HT-29 cells assessed as cell growth incubated for 48 hrs by sulforhodamine B assay; assay type: functional; parameters: concentration or dose not given beside the values
[27] = tested on: SF-295; assay: Growth inhibition of human SF295 cells assessed as cell growth incubated for 48 hrs by sulforhodamine B assay; assay type: functional; parameters: concentration or dose not given beside the values
[28] = tested on: RPMI-8226; assay: Growth inhibition of human RPMI8226 cells assessed as cell growth incubated for 48 hrs by sulforhodamine B assay; assay type: functional; parameters: concentration or dose not given beside the values
[29] = tested on: CAKI-1; assay: Growth inhibition of human Caki1 cells assessed as cell growth incubated for 48 hrs by sulforhodamine B assay; assay type: functional; parameters: concentration or dose not given beside the values
[30] = tested on: TK-10; assay: Growth inhibition of human TK10 cells assessed as cell growth incubated for 48 hrs by sulforhodamine B assay; assay type: functional; parameters: concentration or dose not given beside the values
[31] = tested on: M14; assay: Growth inhibition of human M14 cells assessed as cell growth incubated for 48 hrs by sulforhodamine B assay; assay type: functional; parameters: concentration or dose not given beside the values
[32] = tested on: NCI-H322M; assay: Growth inhibition of human NCI-H322M cells assessed as cell growth incubated for 48 hrs by sulforhodamine B assay; assay type: functional; parameters: scale not given: the % may be the effect or the level left
[33] = tested on: A498; assay: Growth inhibition of human A498 cells assessed as cell growth incubated for 48 hrs by sulforhodamine B assay; assay type: functional; parameters: concentration or dose not given beside the values
[34] = tested on: SF-539; assay: Growth inhibition of human SF539 cells assessed as cell growth incubated for 48 hrs by sulforhodamine B assay; assay type: functional; parameters: scale not given: the % may be the effect or the level left
[35] = tested on: UACC-257; assay: Growth inhibition of human UACC257 cells assessed as cell growth incubated for 48 hrs by sulforhodamine B assay; assay type: functional; parameters: concentration or dose not given beside the values
[36] = tested on: SK-MEL-5; assay: Growth inhibition of human SK-MEL-5 cells assessed as cell growth incubated for 48 hrs by sulforhodamine B assay; assay type: functional; parameters: concentration or dose not given beside the values
[37] = tested on: SNB-75; assay: Growth inhibition of human SNB75 cells assessed as cell growth incubated for 48 hrs by sulforhodamine B assay; assay type: functional; parameters: concentration or dose not given beside the values
[38] = tested on: UO-31; assay: Growth inhibition of human UO31 cells assessed as cell growth incubated for 48 hrs by sulforhodamine B assay; assay type: functional; parameters: concentration or dose not given beside the values
[39] = tested on: SK-MEL-2; assay: Growth inhibition of human SK-MEL-2 cells assessed as cell growth incubated for 48 hrs by sulforhodamine B assay; assay type: functional; parameters: concentration or dose not given beside the values
[40] = tested on: MCF7; assay: Growth inhibition of human MCF7 cells assessed as cell growth incubated for 48 hrs by sulforhodamine B assay; assay type: functional; parameters: concentration or dose not given beside the values
[41] = tested on: HCC 2998; assay: Growth inhibition of human HCC2998 cells assessed as cell growth incubated for 48 hrs by sulforhodamine B assay; assay type: functional; parameters: concentration or dose not given beside the values
[42] = tested on: HL-60(TB); assay: Growth inhibition of human HL-60(TB) cells assessed as cell growth incubated for 48 hrs by sulforhodamine B assay; assay type: functional; parameters: concentration or dose not given beside the values
[43] = tested on: COLO 205; assay: Growth inhibition of human COLO205 cells assessed as cell growth incubated for 48 hrs by sulforhodamine B assay; assay type: functional; parameters: concentration or dose not given beside the values
[44] = tested on: NCI-H522; assay: Growth inhibition of human NCI-H522 cells assessed as cell growth incubated for 48 hrs by sulforhodamine B assay; assay type: functional; parameters: concentration or dose not given beside the values
[45] = tested on: Hs-578T; assay: Growth inhibition of human Hs 578T cells assessed as cell growth incubated for 48 hrs by sulforhodamine B assay; assay type: functional; parameters: concentration or dose not given beside the values
[46] = tested on: CCRF-CEM; assay: Growth inhibition of human CCRF-CEM cells assessed as cell growth incubated for 48 hrs by sulforhodamine B assay; assay type: functional; parameters: concentration or dose not given beside the values
[47] = tested on: MDA-MB-435; assay: Growth inhibition of human MDA-MB-435 cells assessed as cell growth incubated for 48 hrs by sulforhodamine B assay; assay type: functional; parameters: concentration or dose not given beside the values
[48] = tested on: DU-145; assay: Growth inhibition of human DU145 cells assessed as cell growth incubated for 48 hrs by sulforhodamine B assay; assay type: functional; parameters: concentration or dose not given beside the values
[49] = tested on: SR; assay: Growth inhibition of human SR cells assessed as cell growth incubated for 48 hrs by sulforhodamine B assay; assay type: functional; parameters: concentration or dose not given beside the values
[50] = tested on: NCI-H460; assay: Growth inhibition of human NCI-H460 cells assessed as cell growth incubated for 48 hrs by sulforhodamine B assay; assay type: functional; parameters: concentration or dose not given beside the values
[51] = tested on: RXF 393; assay: Growth inhibition of human RXF393 cells assessed as cell growth incubated for 48 hrs by sulforhodamine B assay; assay type: functional; parameters: concentration or dose not given beside the values
[52] = tested on: Malme-3M; assay: Growth inhibition of human MALME-3M cells assessed as cell growth incubated for 48 hrs by sulforhodamine B assay; assay type: functional; parameters: scale not given: the % may be the effect or the level left
[53] = tested on: KM12; assay: Growth inhibition of human KM12 cells assessed as cell growth incubated for 48 hrs by sulforhodamine B assay; assay type: functional; parameters: concentration or dose not given beside the values
[54] = tested on: NCI/ADR-RES; assay: Growth inhibition of human NCI/ADR-RES cells assessed as cell growth incubated for 48 hrs by sulforhodamine B assay; assay type: functional; parameters: concentration or dose not given beside the values
[55] = tested on: MOLT-4; assay: Growth inhibition of human MOLT4 cells assessed as cell growth incubated for 48 hrs by sulforhodamine B assay; assay type: functional; parameters: concentration or dose not given beside the values
[56] = tested on: HCT-116; assay: Growth inhibition of human HCT116 cells assessed as cell growth incubated for 48 hrs by sulforhodamine B assay; assay type: functional; parameters: concentration or dose not given beside the values
[57] = tested on: U-251; assay: Growth inhibition of human U251 cells assessed as cell growth incubated for 48 hrs by sulforhodamine B assay; assay type: functional; parameters: concentration or dose not given beside the values
[58] = tested on: A549; assay: Growth inhibition of human A549/ATCC cells assessed as cell growth incubated for 48 hrs by sulforhodamine B assay; assay type: functional; parameters: concentration or dose not given beside the values
[59] = tested on: PC-3; assay: Growth inhibition of human PC3 cells assessed as cell growth incubated for 48 hrs by sulforhodamine B assay; assay type: functional; parameters: concentration or dose not given beside the values

## O=c1c2ccccc2c(=O)c2c1sc1c(=O)c3cc(Cl)ccc3c(=O)c12
[1]
  IC50: 150 nM

## NCC1CN(C(=O)CCc2ccc3c(=O)c4sc5c(=O)c6ccccc6c(=O)c5c4c(=O)c3c2)C1.O=C(O)C(F)(F)F
[2]
  Activity: -71.07%
[3]
  Activity: -15.99%
[4]
  Activity: -49.62%
[5]
  Activity: -38.88%
[6]
  Activity: -60.32%
[7]
  Activity: -83.65%
[8]
  Activity: -61.54%
[9]
  Activity: -98.59%
[10]
  Activity: -57.54%
[11]
  Activity: -96.22%
[12]
  Activity: -32.93%
[13]
  Activity: -69%
[14]
  Activity: -96.8%
[15]
  Activity: -85.63%
[16]
  Activity: -96.67%
[17]
  Activity: -51.1%
[18]
  Activity: -97.49%
[19]
  Activity: -88.01%
[20]
  Activity: -59.88%
[21]
  Activity: -95.07%
[22]
  Activity: -50.82%
[23]
  Activity: -90.94%
[24]
  Activity: -82.6%
[25]
  Activity: -68.52%
[26]
  Activity: -46.19%
[27]
  Activity: -92.59%
[28]
  Activity: -39.84%
[29]
  Activity: -78.75%
[30]
  Activity: -89.49%
[31]
  Activity: -93.82%
[32]
  Activity: -97.48%
[33]
  Activity: -87.3%
[34]
  Activity: -99.46%
[35]
  Activity: -92.08%
[36]
  Activity: -98.07%
[37]
  Activity: -95.74%
[38]
  Activity: -96.98%
[39]
  Activity: -72.32%
[40]
  Activity: -58.78%
[41]
  Activity: -90.76%
[42]
  Activity: -46.78%
[43]
  Activity: -91.79%
[44]
  Activity: -72.26%
[45]
  Activity: 1.09%
[46]
  Activity: -29.57%
[47]
  Activity: -93.07%
[48]
  Activity: -94.41%
[49]
  Activity: -25%
[50]
  Activity: -52.32%
[51]
  Activity: -77.25%
[52]
  Activity: -93.22%
[53]
  Activity: -76.76%
[54]
  Activity: -15.35%
[55]
  Activity: -36.2%
[56]
  Activity: -80.84%
[57]
  Activity: -92.83%
[58]
  Activity: -55.33%
[59]
  Activity: -79.46%

## O=c1c2cc(O)ccc2c(=O)c2c1sc1c(=O)c3cc(O)ccc3c(=O)c12
[1]
  IC50: 4400 nM
